From patent publication US10513697B2, “CO2 profile cultivation” (Hoffmann-La Roche Inc., priority 2011, dated 2019)

Assays:
[1] = tested on: control cell line in HyQ medium (Control HyQ, non-transfected CHO cell line); experiment: Re-alkalinization experiment (pHi recovery after CO2 acid load, flow cytometry) in control cell line; type: cell-based, Chinese Hamster
Experimental: To examine the effect of hCAII expression on the cell internal pH value (pHi), the control cell line in HyQ medium and clone E11 were submitted to a short term acidification. This was achieved by mixing the cells with a CO2-containing solution and measuring the subsequent pHi recovery. […] A replicate of this experiment was performed with the carbonic anhydrase II inhibitor ethoxyzolamide and the results are presented in FIGS. 7(A) and 7(B). […] The following Table summarizes some of the characteristics of the tested cell lines.
pHi measurements were carried out by flow cytometry with the available pHi fluorescent indicator, Carboxy SNARF-1 AM (Molecular Probes Inc.). This dye is an acetoxymethyl (AM) ester that enter the cells readily and is hydrolyzed by non-specific esterases to yield the free fluorescent dye. SNARF-1 AM is very sensitive to pHi changes within the physiological range. It is excited between 488 nm and 530 nm and the fluorescence emission is monitored at two wavelengths, typically about 580 nm (FL2-H) and 640 nm (FL3-H). This is particularly interesting as the fluorescence emission wavelength ratio can be calculated foe a more accurate determination of the pHi. With the use of this ratiometric technique, a number of fluorescence measurement artifacts are eliminated, such as photobleaching, cell thickness and leakage and non-uniform loading of the indicator (SNARF® pH indicators, Product information, 2003, Molecular Probes Inc.). Herein the Pseudo-Null calibration method was used. […] A simplification can be considered if the calibration solutions are prepared in such a way that a concentration of weak base and a concentration of weak acid produce an equal but opposite change in pHi (i.e., pHa=pHb). The derived relationship for pHi determination is presented in Equation 10.11.
The regulation of the pHi was studied by flow cytometric analysis during intracellular acidification with bicarbonate. The kinetic of the transporters were examined. This test was made at physiological conditions. Therefore medium was used instead of buffer to account for influences of other medium components. To eliminate the activity of other cellular pHi-regulation systems, cells were pre-incubated in bicarbonate-free medium buffered with HEPES. […] This system consisting of two disposable 5 ml Luer-Lock syringes (B. Braun AG, Melsungen, Germany) connected by a short tubing and two Luer tubing connectors (Rotilabo®). These Luer connectors permitted the rapid and easy connection/disconnection of the 2 syringes.
Syringe A contained stained cells in bicarbonate-free production medium and syringe B production medium with 4.2 g/l NaHCO3 (corresponding to […] at pH 7.2). Both media contained 20 mM HEPES and were adjusted to pH 7.2 at 37° C. Acid-load was achieved by pressing bicarbonate-containing medium from syringe B into syringe A. A 5 ml syringe was pre-loaded with 22 μl of SNARF-1 AM (2 mM stock solution; Table 3). 1×10^6 cells, from the exponential phase, were harvested and washed once with 4 ml medium without bicarbonate. After which, the cell suspension was sucked (without air bubbles) into the pre-loaded fluorescence dye syringe, which was them closed with the Luer-stopper and gently mixed. […] The syringe B was discarded, syringe A was closed and after short mixing, the acid-loaded cells were analyzed by flow cytometry. Additionally, some samples were measured with the blood gas analyzer to determine the content of CO2 in medium during the experiment. […]

[2] = tested on: hCAII-expressing CHO cell clone E11; experiment: Re-alkalinization experiment (pHi recovery after CO2 acid load, flow cytometry) in hCAII-expressing clone; type: cell-based, Chinese Hamster
Experimental: pHi measurements were carried out by flow cytometry with the available pHi fluorescent indicator, Carboxy SNARF-1 AM (Molecular Probes Inc.). This dye is an acetoxymethyl (AM) ester that enter the cells readily and is hydrolyzed by non-specific esterases to yield the free fluorescent dye. SNARF-1 AM is very sensitive to pHi changes within the physiological range. It is excited between 488 nm and 530 nm and the fluorescence emission is monitored at two wavelengths, typically about 580 nm (FL2-H) and 640 nm (FL3-H). This is particularly interesting as the fluorescence emission wavelength ratio can be calculated foe a more accurate determination of the pHi. […] Herein the Pseudo-Null calibration method was used. […] A simplification can be considered if the calibration solutions are prepared in such a way that a concentration of weak base and a concentration of weak acid produce an equal but opposite change in pHi (i.e., pHa=pHb). The derived relationship for pHi determination is presented in Equation 10.11.
Syringe A contained stained cells in bicarbonate-free production medium and syringe B production medium with 4.2 g/l NaHCO3 (corresponding to 25% CO2 at pH 7.2). Both media contained 20 mM HEPES and were adjusted to pH 7.2 at 37° C. Acid-load was achieved by pressing bicarbonate-containing medium from syringe B into syringe A. A 5 ml syringe was pre-loaded with 22 μl of SNARF-1 AM (2 mM stock solution; Table 3). 1×10^6 cells, from the exponential phase, were harvested and washed once with 4 ml medium without bicarbonate. After which, the cell suspension was sucked (without air bubbles) into the pre-loaded fluorescence dye syringe, which was them closed with the Luer-stopper and gently mixed. After a 25 min. period of incubation at 37° C. in the dark, with regularly mixing to avoid cell settling, followed dissolved gas and flow cytometric analysis. Three measurements of loaded cells in bicarbonate-free medium were made before acidification of cells cytoplasm. Afterwards, the syringe B was connected to syringe A and the double volume of NaHCO3-containing medium was added. The syringe B was discarded, syringe A was closed and after short mixing, the acid-loaded cells were analyzed by flow cytometry. Additionally, some samples were measured with the blood gas analyzer to determine the content of CO2 in medium during the experiment.
To test if the re-alkalinization effect was due to the hCAII-overexpression, the hCAII inhibitor ethoxyzolamide (ACTZ) was used. […]

`CCOc1ccc2nc(S(N)(=O)=O)sc2c1` [ACTZ, ethoxyzolamide] was tested, and the “Steady state pHi” value ([1]; Control HyQ + ACTZ, 100 μM ethoxyzolamide in media, pHe 7.10) was 7.02, the “pHi (acid load)” value ([1]; Control HyQ + ACTZ, 100 μM ethoxyzolamide, about 9% CO2 acid load) was 6.84 and the “pHi/min (5 min)” value ([1]; Control HyQ + ACTZ, 100 μM ethoxyzolamide, initial recovery rate of first 5 min after acid load) was 0.049 pHi/min. The “decrease on the re-alkalinization rate” value ([1]; control cell line in HyQ medium, in the presence of the inhibitor) was 30%, the “time after exposure to CO2-containing medium at which steady state pHi was exceeded” value ([1]; hCAII inhibited reaction, control cell line in HyQ medium (11 min. without inhibitor)) was 5 min and the “Steady state pHi” value ([2]; Clone E11 + ACTZ, 100 μM ethoxyzolamide in media, pHe 7.11) was 6.87. For the same molecule, the “pHi (acid load)” value ([2]; Clone E11 + ACTZ, 100 μM ethoxyzolamide, about 9% CO2 acid load) was 6.61, the “pHi/min (5 min)” value ([2]; Clone E11 + ACTZ, 100 μM ethoxyzolamide, initial recovery rate of first 5 min after acid load) was 0.057 pHi/min and the “decrease on the re-alkalinization rate” value ([2]; clone E11, in the presence of the inhibitor) was 19%. The “time after exposure to CO2-containing medium at which steady state pHi was exceeded” value ([2]; hCAII inhibited reaction, clone E11 (8 min. without inhibitor)) was 5 min.
